The compounds below were run against human Nav1.8 (Homo sapiens, UniProt Q9Y5Y9) (assay: Sophion Qpatch II assay (automated patch clamp)). Settings: resting state block (TP1 measurement), human Nav1.8 HEK293 cells, read-out: P1 IC50.
Format: cell-based
Protocol: Compounds were tested on recombinant human Nav1.8/01 stably transfected HEK293 (Eurofins, CYL3025, St. Charles, MO) cells using the Qpatch II system (Sophion Bioscience A/S, Ballerup—Denmark), an automated patch clamp device. Cells were cultured at 37° C./5% CO2 in DMEM/F-12 supplemented with 10% fetal bovine serum, lx Non-Essential Amino Acids, and selection antibiotics (0.625 μg/mL Puromycin, 400 μg/mL Geneticin, and 100 μg/mL Hygromycin). One or two days prior to recording, cells were moved to a lower temperature 30° C./5% CO2 incubator to increase surface expression of the channels. On the day of the recordings, cells in culture dishes were washed twice with Ca^2+—Mg^2+ free DPBS and treated with Detachin (Genlantis, San Diego) for 3 minutes and then resuspended in Serum Free Medium (EX-CELL® ACF CHO Medium for Cell Culture (Sigma-Aldrich) supplemented with 0.04 mg/mL soybean trypsin Inhibitor and 25 mM HEPES (all components supplied by Sigma-Aldrich, St. Louis, MO) and allowed to recover for a minimum of 20 minutes in the onboard Qstirrer. All experiments were performed at ambient temperature. Intracellular solution contained (mM): CsCl, 50; CsF, 90; MgCl2, 2; EGTA, 5; HEPES, 10; pH adjusted to 7.2 with CsOH. Extracellular solution contained (mM): NaCl, 137; KCl, 4; CaCl2), 3.8; MgCl2, 1; HEPES, 10; Glucose, 10; pH adjusted to 7.4 with NaOH. 500 nM tetrodotoxin (TTX) was added to the extracellular solution to block endogenous TTX-sensitive sodium currents.
Compounds were tested in an interleaved manner across two cohorts of wells to develop an aggregate 8-point concentration response curve. Final concentrations include 0.5% DMSO and 0.03% pluronic Acid. The concentration range spanned a range from 0.01-300 nM. Compounds were diluted 1:10 with extracellular solution within their respective cohort. (R)-2-(4-fluoro-2-methylphenoxy)-N-(3-(S-methylsulfonimidoyl)phenyl)-5-(trifluoromethyl)nicotinamide served as a positive control while DMSO (0.5% by volume) served as a vehicle control to ascertain assay performance.
Whole cell patch clamp recordings were conducted according to Sophion standard procedure for Qpatch II®. Cells were held at a holding potential of −120 mV. A depolarizing step to 10 mV for 30 ms was applied (TP1 measurement), followed by a hyperpolarization step to −100 mV for 20 ms. Due to instability observed at long depolarized potentials, there were no second TP2 measurements attempted. Inter-sweep interval was 15 sec. Following establishment of the whole-cell configuration in extracellular solution, cells were washed twice in extracellular solution containing 0.5% DMSO and 0.03% pluronic acid to stabilize the baseline current. Compounds were then applied by the Qpatch II system into each well in an ascending manner within cohort and the current was recorded for five minutes for each concentration. Percent of current remaining was determined by taking the average of the last 5 sweeps within each concentration and normalizing to the latest pre-compound saline period. The potency of the compounds was assessed on resting state block (TP1 measurement) only to obtain IC50 values. Wells whose initial sodium current magnitude were below 2 nA or whole cell resistance fell below 100 MQ were excluded from analysis.
Examples 220 to 224, Examples 237 to 257 and Example 259 are assayed using Sophion Qpatch II assay described above.

Sequence of human Nav1.8 (Q9Y5Y9 whole entry): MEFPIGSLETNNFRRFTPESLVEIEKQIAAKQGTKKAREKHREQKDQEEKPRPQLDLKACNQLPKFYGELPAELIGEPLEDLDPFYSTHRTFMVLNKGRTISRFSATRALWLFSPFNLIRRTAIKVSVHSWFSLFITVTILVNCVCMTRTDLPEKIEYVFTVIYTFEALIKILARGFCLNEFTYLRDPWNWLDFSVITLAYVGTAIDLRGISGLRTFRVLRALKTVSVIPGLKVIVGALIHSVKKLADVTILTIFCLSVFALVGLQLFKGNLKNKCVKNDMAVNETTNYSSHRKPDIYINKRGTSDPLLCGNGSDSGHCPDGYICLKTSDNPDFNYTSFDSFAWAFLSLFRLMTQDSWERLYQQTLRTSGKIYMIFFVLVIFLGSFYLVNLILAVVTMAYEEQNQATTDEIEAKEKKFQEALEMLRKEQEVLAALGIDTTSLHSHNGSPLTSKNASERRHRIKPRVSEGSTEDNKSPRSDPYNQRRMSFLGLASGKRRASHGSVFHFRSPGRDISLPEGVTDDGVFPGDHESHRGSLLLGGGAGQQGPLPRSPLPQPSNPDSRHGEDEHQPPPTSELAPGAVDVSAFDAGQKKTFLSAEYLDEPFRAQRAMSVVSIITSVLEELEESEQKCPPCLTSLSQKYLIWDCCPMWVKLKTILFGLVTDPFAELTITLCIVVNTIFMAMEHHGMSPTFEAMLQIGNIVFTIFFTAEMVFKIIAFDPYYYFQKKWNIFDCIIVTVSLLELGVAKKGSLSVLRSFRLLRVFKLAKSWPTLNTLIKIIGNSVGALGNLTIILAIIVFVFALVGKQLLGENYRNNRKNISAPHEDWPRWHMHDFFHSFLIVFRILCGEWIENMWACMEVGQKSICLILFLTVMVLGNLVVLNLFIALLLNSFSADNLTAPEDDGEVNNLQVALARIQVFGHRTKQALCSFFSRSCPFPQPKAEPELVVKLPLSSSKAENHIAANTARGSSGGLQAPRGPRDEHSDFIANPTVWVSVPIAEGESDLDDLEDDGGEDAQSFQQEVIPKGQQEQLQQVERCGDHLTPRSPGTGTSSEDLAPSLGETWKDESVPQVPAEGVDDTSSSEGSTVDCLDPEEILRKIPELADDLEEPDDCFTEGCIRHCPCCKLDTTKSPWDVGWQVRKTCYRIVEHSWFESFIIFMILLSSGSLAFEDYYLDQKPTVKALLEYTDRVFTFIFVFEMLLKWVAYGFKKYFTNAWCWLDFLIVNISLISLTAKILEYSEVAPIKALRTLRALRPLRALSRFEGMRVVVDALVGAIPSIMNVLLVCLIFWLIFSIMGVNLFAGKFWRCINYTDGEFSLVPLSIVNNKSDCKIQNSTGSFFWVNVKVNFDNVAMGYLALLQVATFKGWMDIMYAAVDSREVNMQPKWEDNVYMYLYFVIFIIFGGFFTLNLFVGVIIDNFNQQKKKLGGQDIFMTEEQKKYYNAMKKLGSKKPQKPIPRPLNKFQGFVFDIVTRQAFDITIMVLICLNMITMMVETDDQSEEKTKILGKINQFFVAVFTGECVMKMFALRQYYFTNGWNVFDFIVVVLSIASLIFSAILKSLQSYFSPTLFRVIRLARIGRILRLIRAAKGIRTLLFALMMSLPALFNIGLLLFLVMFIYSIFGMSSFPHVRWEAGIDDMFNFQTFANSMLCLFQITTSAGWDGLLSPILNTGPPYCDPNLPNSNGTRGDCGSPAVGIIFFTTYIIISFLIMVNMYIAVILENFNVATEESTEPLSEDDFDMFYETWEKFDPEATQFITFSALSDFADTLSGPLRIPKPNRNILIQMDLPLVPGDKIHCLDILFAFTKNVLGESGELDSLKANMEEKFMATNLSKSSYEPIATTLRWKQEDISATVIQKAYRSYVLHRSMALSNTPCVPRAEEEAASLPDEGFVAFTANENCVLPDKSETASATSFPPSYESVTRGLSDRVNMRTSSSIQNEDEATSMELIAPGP

`Cc1c(C(=O)Nc2ccnc([S@](C)(=N)=O)c2)c(N2CCCC(F)(F)CC2)nc(C2CC2)c1C(F)(F)F` [Example 220, (R)-6-cyclopropyl-2-(4,4-difluoroazepan-1-yl)-4-methyl-N-(2-(S-methylsulfonimidoyl)pyridin-4-yl)-5-(trifluoromethyl)nicotinamide] and `Cc1c(C(=O)Nc2ccnc([S@@](C)(=N)=O)c2)c(N2CCCC(F)(F)CC2)nc(C2CC2)c1C(F)(F)F` [Example 221, (S)-6-cyclopropyl-2-(4,4-difluoroazepan-1-yl)-4-methyl-N-(2-(S-methylsulfonimidoyl)pyridin-4-yl)-5-(trifluoromethyl)nicotinamide] fall in the same range of IC50: 5 to 50 nM for the first, 5 to 50 nM for the second.

`C[S@@](=N)(=O)c1cccc(NC(=O)c2cc(Cl)c(C(F)(F)F)cc2N2CCC(F)(F)CC2)c1` [Example 222, (R)-5-chloro-2-(4,4-difluoropiperidin-1-yl)-N-(3-(S-methylsulfonimidoyl)phenyl)-4-(trifluoromethyl)benzamide] and `C[S@](=N)(=O)c1cccc(NC(=O)c2cc(Cl)c(C(F)(F)F)cc2N2CCC(F)(F)CC2)c1` [Example 255, (S)-5-chloro-2-(4,4-difluoropiperidin-1-yl)-N-(3-(S-methylsulfonimidoyl)phenyl)-4-(trifluoromethyl)benzamide] fall in the same range of IC50: 5 to 50 nM for the first, 5 to 50 nM for the second.

`Cc1c(C(=O)Nc2cccc([S@@](C)(=N)=O)c2)c(N2CCCC(F)(F)CC2)nc(C2CC2)c1C(F)(F)F` [Example 223, (S)-6-cyclopropyl-2-(4,4-difluoroazepan-1-yl)-4-methyl-N-(3-(S-methylsulfonimidoyl)phenyl)-5-(trifluoromethyl)nicotinamide] and `Cc1c(C(=O)Nc2cccc([S@](C)(=N)=O)c2)c(N2CCCC(F)(F)CC2)nc(C2CC2)c1C(F)(F)F` [Example 224, (R)-6-cyclopropyl-2-(4,4-difluoroazepan-1-yl)-4-methyl-N-(3-(S-methylsulfonimidoyl)phenyl)-5-(trifluoromethyl)nicotinamide] cannot be ordered by IC50: at most 5 nM for the first, 5 to 50 nM for the second.

Compared with `Cc1c(C(F)(F)F)cnc(N2CCO[C@H](C(F)(F)F)C2)c1C(=O)Nc1ccnc([S@](C)(=N)=O)c1` [Example 237, 4-methyl-N-(2-((R)—S-methylsulfonimidoyl)pyridin-4-yl)-5-(trifluoromethyl)-2-((S)-2-(trifluoromethyl)morpholino)nicotinamide], `Cc1c(C(F)(F)F)cnc(N2CCO[C@@H](C(F)(F)F)C2)c1C(=O)Nc1ccnc([S@](C)(=N)=O)c1` [Example 239, 4-methyl-N-(2-((R)—S-methylsulfonimidoyl)pyridin-4-yl)-5-(trifluoromethyl)-2-((R)-2-(trifluoromethyl)morpholino)nicotinamide] is higher in IC50: 50 to 100 nM for the first, over 200 nM for the second. The first is the more potent here.

First: Cc1c(C(F)(F)F)cnc(N2CCO[C@@H](C(F)(F)F)C2)c1C(=O)Nc1cccc([S@](C)(=N)=O)c1 [Example 238, 4-methyl-N-(3-((R)—S-methylsulfonimidoyl)phenyl)-5-(trifluoromethyl)-2-((R)-2-(trifluoromethyl)morpholino)nicotinamide]
Second: Cc1c(C(F)(F)F)cnc(N2CCO[C@H](C(F)(F)F)C2)c1C(=O)Nc1cccc([S@](C)(=N)=O)c1 [Example 240, 4-methyl-N-(3-((R)—S-methylsulfonimidoyl)phenyl)-5-(trifluoromethyl)-2-((S)-2-(trifluoromethyl)morpholino)nicotinamide]
The IC50 of the first is higher: over 200 nM for the first, 5 to 50 nM for the second. The second is the more potent here.

`Cc1c(C(F)(F)F)cnc(N2CCC(F)(F)CC2)c1C(=O)Nc1cccc([S@](C)(=N)=O)c1` [Example 241, (R)-2-(4,4-difluoropiperidin-1-yl)-4-methyl-N-(3-(S-methylsulfonimidoyl)phenyl)-5-(trifluoromethyl)nicotinamide] and `Cc1c(C(F)(F)F)cnc(N2CCC(C(F)(F)F)CC2)c1C(=O)Nc1cccc([S@](C)(=N)=O)c1` [Example 242, (R)-4-methyl-N-(3-(S-methylsulfonimidoyl)phenyl)-5-(trifluoromethyl)-2-(4-(trifluoromethyl)piperidin-1-yl)nicotinamide] fall in the same range of IC50: 5 to 50 nM for the first, 5 to 50 nM for the second.

`C[S@@](=N)(=O)c1cc(NC(=O)c2cc(Cl)c(C(F)(F)F)cc2N2CCC(C(F)(F)F)CC2)ccn1` [Example 243, (R)-5-chloro-N-(2-(S-methylsulfonimidoyl)pyridin-4-yl)-4-(trifluoromethyl)-2-(4-(trifluoromethyl)piperidin-1-yl)benzamide] and `C[S@](=N)(=O)c1cc(NC(=O)c2cc(Cl)c(C(F)(F)F)cc2N2CCC(C(F)(F)F)CC2)ccn1` [Example 244, (S)-5-chloro-N-(2-(S-methylsulfonimidoyl)pyridin-4-yl)-4-(trifluoromethyl)-2-(4-(trifluoromethyl)piperidin-1-yl)benzamide] fall in the same range of IC50: 50 to 100 nM for the first, 50 to 100 nM for the second.

First: C[S@@](=N)(=O)c1cc(NC(=O)c2cc(Cl)c(C(F)(F)F)cc2N2CCC(C(F)(F)F)CC2)ccc1F [Example 245, (R)-5-chloro-N-(4-fluoro-3-(S-methylsulfonimidoyl)phenyl)-4-(trifluoromethyl)-2-(4-(trifluoromethyl)piperidin-1-yl)benzamide]
Second: C[S@](=N)(=O)c1cc(NC(=O)c2cc(Cl)c(C(F)(F)F)cc2N2CCC(C(F)(F)F)CC2)ccc1F [Example 246, (S)-5-chloro-N-(4-fluoro-3-(S-methylsulfonimidoyl)phenyl)-4-(trifluoromethyl)-2-(4-(trifluoromethyl)piperidin-1-yl)benzamide]
The IC50 of the first is lower: 5 to 50 nM for the first, 50 to 100 nM for the second.

Compared with `C[S@](=N)(=O)c1cc(NC(=O)c2cc(Cl)c(C(F)(F)F)cc2N2CCC(F)(F)CC2)ccn1` [Example 247, (S)-5-chloro-2-(4,4-difluoropiperidin-1-yl)-N-(2-(S-methylsulfonimidoyl)pyridin-4-yl)-4-(trifluoromethyl)benzamide], `C[S@@](=N)(=O)c1cc(NC(=O)c2cc(Cl)c(C(F)(F)F)cc2N2CCC(F)(F)CC2)ccn1` [Example 248, (R)-5-chloro-2-(4,4-difluoropiperidin-1-yl)-N-(2-(S-methylsulfonimidoyl)pyridin-4-yl)-4-(trifluoromethyl)benzamide] is lower in IC50: 100 to 200 nM for the first, 50 to 100 nM for the second. The second is the more potent here.

First: C[S@](=N)(=O)c1cc(NC(=O)c2cc(Cl)c(C(F)(F)F)cc2N2CCC(F)(F)CC2)ccc1F [Example 249, (S)-5-chloro-2-(4,4-difluoropiperidin-1-yl)-N-(4-fluoro-3-(S-methylsulfonimidoyl)phenyl)-4-(trifluoromethyl)benzamide]
Second: C[S@@](=N)(=O)c1cc(NC(=O)c2cc(Cl)c(C(F)(F)F)cc2N2CCC(F)(F)CC2)ccc1F [Example 254, (R)-5-chloro-2-(4,4-difluoropiperidin-1-yl)-N-(4-fluoro-3-(S-methylsulfonimidoyl)phenyl)-4-(trifluoromethyl)benzamide]
The IC50 of the first is higher: 50 to 100 nM for the first, 5 to 50 nM for the second. The second is the more potent here.

First: Cc1c(C(=O)Nc2ccnc([S@](C)(=N)=O)c2)c(N2CCCC(F)(F)CC2)cc(C2CC2)c1C(F)(F)F [Example 250, (R)-4-cyclopropyl-6-(4,4-difluoroazepan-1-yl)-2-methyl-N-(2-(S-methylsulfonimidoyl)pyridin-4-yl)-3-(trifluoromethyl)benzamide]
Second: Cc1c(C(F)(F)F)cnc(N2CCCC(F)(F)CC2)c1C(=O)N[C@H]1C[C@H](C(=O)O)C1 [Example 256, (trans)-3-(2-(4,4-difluoroazepan-1-yl)-4-methyl-5-(trifluoromethyl)nicotinamido)cyclobutane-1-carboxylic acid]
The IC50 of the first is lower: at most 5 nM for the first, 50 to 100 nM for the second.

`C[S@](=N)(=O)c1cccc(NC(=O)c2cc(Cl)c(C(F)(F)F)cc2N2CCC(C(F)(F)F)CC2)c1` [Example 251, (S)-5-chloro-N-(3-(S-methylsulfonimidoyl)phenyl)-4-(trifluoromethyl)-2-(4-(trifluoromethyl)piperidin-1-yl)benzamide] and `NC(=O)[C@H]1C[C@H](NC(=O)c2cc(Cl)c(C(F)(F)F)cc2N2CCCC(F)(F)CC2)C1` [Example 252, N-((trans)-3-carbamoylcyclobutyl)-5-chloro-2-(4,4-difluoroazepan-1-yl)-4-(trifluoromethyl)benzamide] fall in the same range of IC50: 50 to 100 nM for the first, 50 to 100 nM for the second.

Source: US20250154109A1, “SODIUM CHANNEL BLOCKING COMPOUNDS, DERIVATIVES THEREOF, AND METHODS OF THEIR USE” (LATIGO BIOTHERAPEUTICS, INC, priority 2022, published 2025)
